Measurements from ChEMBL document CHEMBL4414679, “Discovery of 4,6-pyrimidinediamine derivatives as novel dual EGFR/FGFR inhibitors aimed EGFR/FGFR1-positive NSCLC” (Eur J Med Chem, 2020).
The source made the active and inactive calls. The calls are words filed in the database; no cut-off is given here.

Tests used:
[1] = biological target: Mitogen-activated protein kinase 8 (Homo sapiens) (UniProt P45983); experiment: Inhibition of human full length His-tagged JNK1 expressed in baculovirus expression system at 10 uM using FAM-labelled peptide as substrate pre-incubated for 10 mins followed by substrate addition by mobility shift assay relative to control
[2] = Induction of apoptosis in gefitinib-insensitive human HCC827GR cells assessed as viable cells at 10 uM measured after 24 hrs by Annexin-V/propidium iodide staining-based flow cytometric analysis (reference value: 90.8%); assay type: functional; details: read-out: Activity
[3] = biological target: Hepatocyte growth factor receptor (Homo sapiens) (UniProt P08581); experiment: Inhibition of N-terminal GST-tagged human MET cytoplasmic domain (956 to 1360 AA) expressed in baculovirus at 10 uM using FAM-labelled peptide as substrate pre-incubated for 10 mins followed by substrate addition by mobility shift assay relative to control
NCI-H226 [4] = experiment: Inhibition of colony formation in human NCI-H226 cells measured after 24 hrs by crystal violet staining based assay; assay type: functional, cell-based
HCC827 [5] = experiment: Antiproliferative activity against human HCC827 cells assessed as inhibition of cell growth at 10 uM incubated for 48 hrs by MTT assay relative to control; assay type: functional; details: HCC827, 48 h
NCI-H226 [6] = experiment: Induction of apoptosis in human NCI-H226 cells assessed as viable cells at 5 uM measured after 24 hrs by Annexin-V/propidium iodide staining-based flow cytometric analysis (reference value: 93.4%); assay type: functional; details: NCI-H226, 24 h, read-out: Activity
[7] = MRT in Sprague-Dawley rat at 30 mg/kg, po measured upto 24 hrs by UPLC-MS/MS; assay type: ADME, organism-based; details: in vivo
HCC827 [8] = experiment: Antiproliferative activity against human HCC827 cells incubated for 48 hrs by MTT assay; assay type: functional, cell-based; details: HCC827, 48 h
[9] = biological target: CDK2/Cyclin A2 (Homo sapiens) (UniProt P24941+P20248); experiment: Inhibition of CDK2/cyclin A2 (unknown origin) at 10 uM using FAM-labelled peptide as substrate pre-incubated for 10 mins followed by substrate addition by mobility shift assay relative to control; assay type: protein-complex assay
Homo sapiens [10] = species on record: Homo sapiens; experiment: Inhibition of cell migration in gefitinib-insensitive human HCC827GR cells incubated upto 72 hrs by wound healing assay; assay type: functional
NCI-H226 [11] = experiment: Induction of apoptosis in human NCI-H226 cells assessed as viable cells at 10 uM measured after 24 hrs by Annexin-V/propidium iodide staining-based flow cytometric analysis (reference value: 93.4%); assay type: functional; details: NCI-H226, 24 h, read-out: Activity
NCI-H226 [12] = experiment: Induction of apoptosis in human NCI-H226 cells assessed as early apoptotic cells at 1 uM measured after 24 hrs by Annexin-V/propidium iodide staining-based flow cytometric analysis (reference value: 0.8%); assay type: functional
PC-9 = experiment: Antiproliferative activity against human PC9 cells incubated for 48 hrs by MTT assay; assay type: functional, cell-based; details: PC-9, 48 h
[13] = AUC (0 to 24 hrs) in Sprague-Dawley rat at 30 mg/kg, po measured upto 24 hrs by UPLC-MS/MS; assay type: ADME, organism-based; design: time < 24 hr, dose 30 mg/kg, route oral; details: in vivo
NCI-H226 [14] = experiment: Induction of apoptosis in human NCI-H226 cells assessed as early apoptotic cells at 10 uM measured after 24 hrs by Annexin-V/propidium iodide staining-based flow cytometric analysis (reference value: 0.8%); assay type: functional
NCI-H226 [15] = experiment: Induction of cell cycle arrest in human NCI-H226 cells assessed as accumulation of cells at G1 measured after 24 hrs by flow cytometry; assay type: functional, cell-based
NCI-H1581 = experiment: Antiproliferative activity against human NCI-H1581 cells assessed as inhibition of cell growth at 10 uM incubated for 48 hrs by MTT assay relative to control; assay type: functional; details: NCI-H1581, 48 h
[16] = biological target: Vascular endothelial growth factor receptor 3 (Homo sapiens) (UniProt P35916); experiment: Inhibition of N-terminal GST tagged human FLT4 cytoplasmic domain (798 to 1298 AA) expressed in baculovirus at 10 uM using FAM-labelled peptide as substrate pre-incubated for 10 mins followed by substrate addition by mobility shift assay relative to control
[17] = test system: Epidermal growth factor receptor (Homo sapiens), P00533 [L858R]; experiment: Inhibition of recombinant human EGFR L858R mutant expressed in baculovirus at 10 uM using FAM-labelled peptide as substrate pre-incubated for 10 mins followed by substrate addition by mobility shift assay relative to control
[18] = biological target: Fibroblast growth factor receptor 2 (Homo sapiens) (UniProt P21802); experiment: Inhibition of N-terminal GST tagged human FGFR2 cytoplasmic domain (399 to 821 AA) expressed in baculovirus at 10 uM using FAM-labelled peptide as substrate pre-incubated for 10 mins followed by substrate addition by mobility shift assay relative to control
[19] = biological target: Fibroblast growth factor receptor 1 (Homo sapiens, UniProt P11362); experiment: Inhibition of FGFR1 in gefitinib-insensitive human HCC827GR cells assessed as reduction in FGF-induced Akt phosphorylation upto 10 uM measured after 2 hrs by western blot analysis
[20] = biological target: CDK4/Cyclin D3 (Homo sapiens) (UniProt P11802+P30281); experiment: Inhibition of N-terminal GST tagged truncated human CDK4 (1 to 303 AA) coexpressed with CyclinD3 (1 to 292 AA) in baculovirus at 10 uM using FAM-labelled peptide as substrate pre-incubated for 10 mins followed by substrate addition by mobility shift assay relative to control; assay type: protein-complex assay
NCI-H226 [21] = experiment: Induction of apoptosis in human NCI-H226 cells assessed as early apoptotic cells at 5 uM measured after 24 hrs by Annexin-V/propidium iodide staining-based flow cytometric analysis (reference value: 0.8%); assay type: functional
Mus musculus = experiment: Down regulation of FGFR1 phosphorylation in BALB/c nude mouse xenografted with human HCC827GR cells at 15 mg/kg, ip dosed by western blot analysis; assay type: functional, organism-based
NCI-H226 [22] = experiment: Induction of apoptosis in human NCI-H226 cells assessed as necrotic cells at 1 uM measured after 24 hrs by Annexin-V/propidium iodide staining-based flow cytometric analysis (reference value: 3%); assay type: functional
[23] = Induction of apoptosis in gefitinib-insensitive human HCC827GR cells assessed as necrotic cells at 5 uM measured after 24 hrs by Annexin-V/propidium iodide staining-based flow cytometric analysis (reference value: 5.8%); assay type: functional
[24] = biological target: Epidermal growth factor receptor (Homo sapiens, UniProt P00533); experiment: Inhibition of EGFR in serum-starved human HCC827 cells assessed as reduction in EGF-induced AKT phosphorylation upto 10 uM incubated for 1 hr by Western blot analysis; assay type: cell-based
Homo sapiens [25] = species on record: Homo sapiens; experiment: Induction of cell cycle arrest in gefitinib-insensitive human HCC827GR cells assessed as accumulation of cells at G1 measured after 24 hrs by flow cytometry; assay type: functional
[26] = Induction of apoptosis in gefitinib-insensitive human HCC827GR cells assessed as late apoptotic cells at 5 uM measured after 24 hrs by Annexin-V/propidium iodide staining-based flow cytometric analysis (reference value: 1.5%); assay type: functional
[27] = biological target: Wee1-like protein kinase (Homo sapiens) (UniProt P30291); experiment: Inhibition of N-terminal GST tagged human WEE1 catalytic domain (215 to 646 AA) expressed in baculovirus at 10 uM using FAM-labelled peptide as substrate pre-incubated for 10 mins followed by substrate addition by mobility shift assay relative to control
Wee1-like protein kinase (Homo sapiens), sequence (P30291 whole entry, looked up, the tested form may be a part): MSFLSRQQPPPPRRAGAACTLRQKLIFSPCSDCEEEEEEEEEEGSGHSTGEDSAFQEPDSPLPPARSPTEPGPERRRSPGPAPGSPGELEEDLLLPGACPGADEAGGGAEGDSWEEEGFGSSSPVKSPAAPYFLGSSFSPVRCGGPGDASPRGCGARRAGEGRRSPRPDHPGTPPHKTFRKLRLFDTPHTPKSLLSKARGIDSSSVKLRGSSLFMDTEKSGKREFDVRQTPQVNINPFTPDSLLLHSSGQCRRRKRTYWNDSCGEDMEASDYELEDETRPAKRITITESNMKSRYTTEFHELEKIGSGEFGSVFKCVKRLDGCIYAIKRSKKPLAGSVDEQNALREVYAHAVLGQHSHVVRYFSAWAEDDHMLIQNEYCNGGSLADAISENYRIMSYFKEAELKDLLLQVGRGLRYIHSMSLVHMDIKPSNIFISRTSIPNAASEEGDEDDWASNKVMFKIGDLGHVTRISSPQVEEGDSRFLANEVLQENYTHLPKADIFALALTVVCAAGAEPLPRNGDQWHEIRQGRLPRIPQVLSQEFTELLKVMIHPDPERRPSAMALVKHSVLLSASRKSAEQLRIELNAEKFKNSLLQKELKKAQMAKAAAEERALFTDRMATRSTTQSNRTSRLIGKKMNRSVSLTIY

Hepatocyte growth factor receptor (Homo sapiens), sequence (P08581 whole entry, the tested form may be a part): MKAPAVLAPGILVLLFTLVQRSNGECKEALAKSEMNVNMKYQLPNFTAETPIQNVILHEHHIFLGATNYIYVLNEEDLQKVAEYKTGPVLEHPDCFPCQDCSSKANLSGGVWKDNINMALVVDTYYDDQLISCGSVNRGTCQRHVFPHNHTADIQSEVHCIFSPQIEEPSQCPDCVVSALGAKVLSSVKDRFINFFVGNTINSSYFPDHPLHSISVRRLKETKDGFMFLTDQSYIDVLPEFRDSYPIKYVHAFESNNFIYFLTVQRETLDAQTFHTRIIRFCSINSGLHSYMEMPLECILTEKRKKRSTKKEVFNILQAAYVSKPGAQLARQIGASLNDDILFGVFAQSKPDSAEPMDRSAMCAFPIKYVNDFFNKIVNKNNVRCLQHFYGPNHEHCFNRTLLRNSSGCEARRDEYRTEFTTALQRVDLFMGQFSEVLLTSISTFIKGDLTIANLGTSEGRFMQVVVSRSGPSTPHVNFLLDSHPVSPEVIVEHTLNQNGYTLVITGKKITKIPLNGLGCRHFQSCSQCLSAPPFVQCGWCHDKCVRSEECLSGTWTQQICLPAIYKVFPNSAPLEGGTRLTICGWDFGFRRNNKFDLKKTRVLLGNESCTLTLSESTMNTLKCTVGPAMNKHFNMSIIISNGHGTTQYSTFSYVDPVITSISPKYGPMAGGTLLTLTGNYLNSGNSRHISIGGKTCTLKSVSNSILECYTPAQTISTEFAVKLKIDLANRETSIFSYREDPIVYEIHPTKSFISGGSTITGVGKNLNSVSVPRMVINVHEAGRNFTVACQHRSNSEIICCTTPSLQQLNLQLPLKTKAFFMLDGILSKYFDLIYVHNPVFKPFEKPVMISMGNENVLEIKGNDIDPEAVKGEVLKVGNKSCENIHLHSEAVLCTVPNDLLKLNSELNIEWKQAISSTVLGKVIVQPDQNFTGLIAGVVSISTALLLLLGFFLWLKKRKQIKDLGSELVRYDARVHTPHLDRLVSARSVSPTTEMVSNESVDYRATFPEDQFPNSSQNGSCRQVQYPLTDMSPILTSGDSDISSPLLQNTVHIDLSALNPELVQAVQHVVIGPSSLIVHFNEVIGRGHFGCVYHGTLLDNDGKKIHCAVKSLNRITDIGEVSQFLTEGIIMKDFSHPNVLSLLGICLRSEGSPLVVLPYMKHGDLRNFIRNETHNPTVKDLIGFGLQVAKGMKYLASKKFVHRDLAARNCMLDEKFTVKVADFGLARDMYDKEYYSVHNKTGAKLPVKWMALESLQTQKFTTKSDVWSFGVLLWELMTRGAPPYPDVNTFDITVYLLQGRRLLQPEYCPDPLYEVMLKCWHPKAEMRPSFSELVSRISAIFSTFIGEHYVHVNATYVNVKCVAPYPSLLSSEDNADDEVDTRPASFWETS
Epidermal growth factor receptor, sequence (P00533 whole entry): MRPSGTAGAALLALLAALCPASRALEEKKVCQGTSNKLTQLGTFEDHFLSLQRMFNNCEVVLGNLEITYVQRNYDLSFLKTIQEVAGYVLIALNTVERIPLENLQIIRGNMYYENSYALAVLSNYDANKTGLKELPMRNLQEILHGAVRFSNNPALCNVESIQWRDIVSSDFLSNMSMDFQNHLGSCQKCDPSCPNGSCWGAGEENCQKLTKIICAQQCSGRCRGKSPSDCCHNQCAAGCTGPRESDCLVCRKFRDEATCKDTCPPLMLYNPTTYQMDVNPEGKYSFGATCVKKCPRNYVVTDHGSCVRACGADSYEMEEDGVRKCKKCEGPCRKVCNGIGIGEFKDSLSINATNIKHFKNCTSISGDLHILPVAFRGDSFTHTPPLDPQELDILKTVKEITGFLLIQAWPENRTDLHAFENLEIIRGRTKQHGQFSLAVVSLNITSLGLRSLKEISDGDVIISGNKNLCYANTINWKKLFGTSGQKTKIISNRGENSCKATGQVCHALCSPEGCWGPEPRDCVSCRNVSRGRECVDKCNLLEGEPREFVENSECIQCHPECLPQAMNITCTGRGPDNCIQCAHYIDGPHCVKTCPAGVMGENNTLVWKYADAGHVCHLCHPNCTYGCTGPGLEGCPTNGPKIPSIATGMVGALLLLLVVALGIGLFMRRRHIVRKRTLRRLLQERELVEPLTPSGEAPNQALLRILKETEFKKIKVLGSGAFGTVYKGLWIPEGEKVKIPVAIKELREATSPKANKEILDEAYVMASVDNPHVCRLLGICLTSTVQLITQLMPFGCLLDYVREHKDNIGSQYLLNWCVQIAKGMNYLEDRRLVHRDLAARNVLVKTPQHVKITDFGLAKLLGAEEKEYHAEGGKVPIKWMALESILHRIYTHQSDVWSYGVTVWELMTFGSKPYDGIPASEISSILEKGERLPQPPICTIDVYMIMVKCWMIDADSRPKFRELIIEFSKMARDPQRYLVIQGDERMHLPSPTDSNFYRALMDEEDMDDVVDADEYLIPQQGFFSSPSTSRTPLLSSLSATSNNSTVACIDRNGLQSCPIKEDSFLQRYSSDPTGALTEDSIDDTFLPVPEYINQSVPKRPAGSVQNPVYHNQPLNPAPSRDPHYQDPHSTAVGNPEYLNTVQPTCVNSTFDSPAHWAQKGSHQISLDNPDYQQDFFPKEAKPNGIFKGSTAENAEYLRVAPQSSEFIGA
Fibroblast growth factor receptor 2 (Homo sapiens), sequence (P21802 22-821 limits assumed): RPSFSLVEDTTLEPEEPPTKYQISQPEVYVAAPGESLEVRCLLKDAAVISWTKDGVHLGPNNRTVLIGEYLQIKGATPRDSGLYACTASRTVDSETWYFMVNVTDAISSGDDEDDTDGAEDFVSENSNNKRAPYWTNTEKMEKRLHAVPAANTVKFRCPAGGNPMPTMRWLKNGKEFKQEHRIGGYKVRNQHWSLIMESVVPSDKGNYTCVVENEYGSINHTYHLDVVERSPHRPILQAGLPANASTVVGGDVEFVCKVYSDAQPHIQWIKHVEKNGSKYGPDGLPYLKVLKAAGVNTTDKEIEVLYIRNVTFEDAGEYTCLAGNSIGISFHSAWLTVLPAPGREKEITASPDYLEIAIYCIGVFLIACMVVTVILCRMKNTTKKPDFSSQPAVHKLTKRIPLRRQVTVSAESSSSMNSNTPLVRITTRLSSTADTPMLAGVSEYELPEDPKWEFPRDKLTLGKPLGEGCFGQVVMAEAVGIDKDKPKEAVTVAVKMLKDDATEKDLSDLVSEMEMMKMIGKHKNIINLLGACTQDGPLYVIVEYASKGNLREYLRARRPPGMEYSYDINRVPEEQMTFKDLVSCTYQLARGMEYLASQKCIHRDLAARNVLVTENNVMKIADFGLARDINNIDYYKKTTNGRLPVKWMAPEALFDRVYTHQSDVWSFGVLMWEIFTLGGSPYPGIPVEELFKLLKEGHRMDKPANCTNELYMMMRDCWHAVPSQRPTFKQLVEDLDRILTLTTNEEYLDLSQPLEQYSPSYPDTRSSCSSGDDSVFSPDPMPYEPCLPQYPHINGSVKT
Fibroblast growth factor receptor 1, sequence (P11362 22-822 limits assumed): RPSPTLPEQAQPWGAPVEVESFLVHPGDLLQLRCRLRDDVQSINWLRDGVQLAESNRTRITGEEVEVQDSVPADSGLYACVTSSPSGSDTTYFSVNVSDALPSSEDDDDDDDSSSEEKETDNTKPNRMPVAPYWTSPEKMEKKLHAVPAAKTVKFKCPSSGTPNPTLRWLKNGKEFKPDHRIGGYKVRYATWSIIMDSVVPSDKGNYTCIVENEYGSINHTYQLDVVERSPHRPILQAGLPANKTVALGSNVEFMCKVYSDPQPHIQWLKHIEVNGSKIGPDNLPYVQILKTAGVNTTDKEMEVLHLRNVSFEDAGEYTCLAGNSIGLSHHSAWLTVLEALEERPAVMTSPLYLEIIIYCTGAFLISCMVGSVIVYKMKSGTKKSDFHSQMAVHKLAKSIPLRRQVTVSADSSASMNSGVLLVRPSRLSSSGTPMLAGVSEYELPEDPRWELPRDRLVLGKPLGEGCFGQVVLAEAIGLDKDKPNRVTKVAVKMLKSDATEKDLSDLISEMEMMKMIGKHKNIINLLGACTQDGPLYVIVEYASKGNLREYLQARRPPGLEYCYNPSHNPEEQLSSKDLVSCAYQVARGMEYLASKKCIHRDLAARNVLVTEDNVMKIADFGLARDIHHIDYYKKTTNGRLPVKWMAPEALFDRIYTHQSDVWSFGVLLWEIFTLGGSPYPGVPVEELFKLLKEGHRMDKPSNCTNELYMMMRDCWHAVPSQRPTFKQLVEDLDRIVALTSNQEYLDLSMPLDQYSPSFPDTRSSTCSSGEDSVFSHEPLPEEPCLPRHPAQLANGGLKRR

COc1ccc(OC)c(Nc2cc(NC(=O)Nc3c(Cl)cccc3Cl)ncn2)c1
inhibition [1]: 3.79% | viability at 10 µM [2]: 51.5% | inhibition [3]: -0.39% | inhibition (NCI-H226 [4]): Dose-dependent effect | inhibition at 10 µM (HCC827 [5]): 94% | viability at 5 µM (NCI-H226 [6]): 79.6% | MRT [7]: 6.73 h | IC50 (HCC827 [8]): 1250 nM | inhibition [9]: 4.4% | inhibition (Homo sapiens [10]): Dose-dependent effect | viability at 10 µM (NCI-H226 [11]): 71.9% | Activity (NCI-H226 [12]): 3% | IC50 (PC-9): 1340 nM | AUC(0-t) at 24 h [13]: 9690 ng·h/mL | Activity (NCI-H226 [14]): 4.4% | Activity (NCI-H226 [15]): Active | inhibition at 10 µM (NCI-H1581): 93.1% | inhibition [16]: 43.6% | inhibition [17]: 96.9% | inhibition [18]: 82.5% | inhibition [19]: Active | inhibition [20]: 12.5% | Activity (NCI-H226 [21]): 6.3% | Activity (Mus musculus): Active | Activity (NCI-H226 [22]): 5.8% | Activity [23]: 4.1% | inhibition [24]: Active | Activity (Homo sapiens [25]): Active | Activity [26]: 25.3% | inhibition [27]: 28%
